Here are results for two compounds from US20080193400A1, “C-Glycoside Compounds and Use Thereof for Depigmenting the Skin” (priority 2005, published 2008).

In series [1] the test system is co-culture of keratinocytes and melanocytes. The series is described as follows: Cytotoxicity by incorporation of leucine in a keratinocyte/melanocyte co-culture. The class given is cell-based. To be noted: estimated by incorporation of leucine. The procedure: (§1) The melanogenesis-modulating effect of the compound of Example 2 was measured according to the method described in patent FR-A-2 734 825, and also in the article by R. Schmidt, P. Krien and M. Régnier, Anal. Biochem., 235(2), 113-18, (1996). This test is performed on a co-culture of keratinocytes and melanocytes.
(§2) The following were determined for the test compound: • the cytotoxicity, by estimating the incorporation of leucine, • the inhibitory activity on melanin synthesis, by estimating the ratio of the incorporation of thiouracil to the incorporation of leucine, relative to 100% of the control (the control corresponds to the test performed without test compound). The IC50 values (the concentration for which a 50% inhibition of melanogenesis is observed) were also determined.
(§3) The test was also performed with arbutin, which is a known depigmenting compound.

Series [2] shares this test system. Put plainly: Inhibition of melanin synthesis (ratio of thiouracil to leucine incorporation) in a keratinocyte/melanocyte co-culture. To be noted: for IC50: ratio of thiouracil to leucine incorporation relative to 100% of control, read-out: IC50 (concentration for which a 50% inhibition of melanogenesis is observed). The class given is cell-based. The procedure: as §1, §2, §3

The structures appear in SMILES notation.

Regarding `OC[C@H]1O[C@@H](Oc2ccc(O)cc2)[C@H](O)[C@@H](O)[C@@H]1O` [Arbutin, arbutin, reference compound], the Cytotoxicity entry in series [1] was “No”. For the same compound, in series [2], the IC50 is ≥ 100 µM.
Turning to `OC[C@H]1O[C@@H](CC(O)c2ccc(O)cc2)[C@H](O)[C@@H](O)[C@@H]1O` (some centres unmarked) [Example 2], the Cytotoxicity entry in series [1] is on record as “No”. Besides, the “Inhibition of melanogenesis (in words)” value in series [2] (compared with arbutin) was “more efficient than arbutin”. Further, the IC50 in series [2] was 100 µM.
